The results in this text go back to US20260234099A1, “Endocannabinoid ligands and related analogs” (Northeastern University, priority 2023, published 2026).

Where two headings read alike, the source gives them in different places. A value given as a limit tells only on which side of the number the result lay.

Test [1] addresses CB1 receptor (rCB1) (Rattus norvegicus, UniProt P20272). Kind of test: cAMP assay (inhibition of FSK stimulated cAMP), CB1. The format is cell-based. As to conditions: for functional profile at CB1 (cAMP): full or partial agonist; for Emax: percentage of maximum response of standard full agonist (e.g., CP-55,940). On the procedure:
Further functional characterization of some of the disclosed compounds tested initially for “binding affinity” or for GTPγ-S binding was performed by using the cyclic adenosine monophosphate (cAMP) assay. […] A detailed description of the methods used to test compounds using the cAMP assay is given in Yingpeng, et al. J. Med. Chem. (2018) 61, 8639-8657 the content of which is hereby incorporated by reference. The EC50 values (potency of a test compound) of the functional assays may or may not be accompanied by the E(max) value in tables 1-5 (efficacy of the test compound). E(max)/efficacy is the maximum GTP stimulation or cAMP inhibition levels and is presented as the percentage of maximum response evoked by a standard CB1/CB2 full agonist (e.g., CP-55,940) for reference see the paper cited above.
(In general: Cyclic AMP is a second messenger, typically raised through Gs and lowered through Gi signalling.)

Test [2] concerns the target CB2 receptor (hCB2) (Homo sapiens, UniProt P34972). Kind of test: cAMP assay (inhibition of FSK stimulated cAMP), CB2. As to conditions: class symbols. The format is cell-based. On the procedure:
FIG. 2A is a graph providing data of the % inhibition of FSK stimulated cAMP for compound 6.1.1 for hCB2.
Further functional characterization of some of the disclosed compounds tested initially for “binding affinity” or for GTPγ-S binding was performed by using the cyclic adenosine monophosphate (cAMP) assay. Key compounds initially characterized functionally using the GTPγ-S assay were also doubly tested using the cAMP assay to unambiguously confirm their functional profiles. The functional potency of the compounds tested using the cyclase assay is also represented by the EC50 (cAMP) value and similarly the lower the EC50 (cAMP) value the higher the potency of the compound for the receptor. A detailed description of the methods used to test compounds using the cAMP assay is given in Yingpeng, et al. J. Med. Chem. (2018) 61, 8639-8657 the content of which is hereby incorporated by reference. The EC50 values (potency of a test compound) of the functional assays may or may not be accompanied by the E(max) value in tables 1-5 (efficacy of the test compound). E(max)/efficacy is the maximum GTP stimulation or cAMP inhibition levels and is presented as the percentage of maximum response evoked by a standard CB1/CB2 full agonist (e.g., CP-55,940) for reference see the paper cited above. If a test compound has an efficacy close to 100% of the standard full agonist, then the test compound is also classified as full agonist.

In test [3] the target is CB2 receptor (Homo sapiens, UniProt P34972). The experiment in a line: CB2 receptor binding affinity (Ki). The following applies: read-out: CB2 receptor Ki. Also noted: CB2 receptor Ki; CB2 receptor Ki (PMSF); other: with PMSF. How it is done: (§1) Some disclosed compounds were tested for CB1 and CB2 receptor binding affinity (Tables 1, 2, 3, 4, 5). As used herein “binding affinity” is represented by the Ki value. The Ki value is the affinity constant and describes the affinity of the compound for the receptor. […] A detailed description of the methods used to test “binding affinity” of compounds is given in Makriyannis, et al., US 2007/0135388 the content of which is hereby incorporated by reference.

The target of test [4] is CB1 receptor (Rattus norvegicus, UniProt P20272). The experiment in a line: CB1 receptor binding affinity (Ki). How it is done: as §1
Setting [5] is: with PMSF, read-out: CB1 Receptor Ki with PMSF.
The mark [6] stands for this setting: without PMSF, read-out: CB1 receptor affinity Ki.

Sequence of CB1 receptor (P20272 whole entry): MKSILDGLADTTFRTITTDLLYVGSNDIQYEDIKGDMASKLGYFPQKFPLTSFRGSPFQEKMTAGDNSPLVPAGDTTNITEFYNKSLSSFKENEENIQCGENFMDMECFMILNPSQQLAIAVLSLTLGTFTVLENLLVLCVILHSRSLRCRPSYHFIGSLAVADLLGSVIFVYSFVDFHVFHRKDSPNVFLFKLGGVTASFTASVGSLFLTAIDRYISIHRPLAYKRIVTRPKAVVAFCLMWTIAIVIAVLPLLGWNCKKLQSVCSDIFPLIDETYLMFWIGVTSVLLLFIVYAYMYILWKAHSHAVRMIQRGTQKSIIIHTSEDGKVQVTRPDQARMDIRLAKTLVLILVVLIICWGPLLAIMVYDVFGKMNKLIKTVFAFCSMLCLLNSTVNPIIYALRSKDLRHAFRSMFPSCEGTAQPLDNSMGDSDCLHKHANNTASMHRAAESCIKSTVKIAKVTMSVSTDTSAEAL
Sequence of CB1 receptor (rCB1) (P20272 whole entry): as above
Sequence of CB2 receptor (hCB2) (P34972 whole entry): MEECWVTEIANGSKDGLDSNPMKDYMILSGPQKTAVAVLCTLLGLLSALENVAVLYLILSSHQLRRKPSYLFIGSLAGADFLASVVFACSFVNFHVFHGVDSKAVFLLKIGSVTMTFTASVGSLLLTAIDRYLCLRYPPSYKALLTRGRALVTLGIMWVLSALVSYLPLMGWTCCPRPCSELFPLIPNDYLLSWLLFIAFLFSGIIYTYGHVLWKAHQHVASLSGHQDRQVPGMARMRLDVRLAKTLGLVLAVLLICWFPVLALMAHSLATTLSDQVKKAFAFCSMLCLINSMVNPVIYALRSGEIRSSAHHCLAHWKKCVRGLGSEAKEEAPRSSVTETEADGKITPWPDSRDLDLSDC

Take `C[C@H](/C=C\C/C=C\C/C=C\C1CC1C(=O)OC(CO)CO)/C=C\CCCCC(F)(F)F` (single isomer, unassigned) [Compound 5.11.4]: the EC50 in test [1] (class symbols) and in test [2] was 10 to 200 nM in each case.
Consider `C[C@H](/C=C\C/C=C\C/C=C\C1CC1C(=O)OC(CO)CO)/C=C\CCCCC(F)(F)F` (single isomer, unassigned) [Compound 5.11.8], for which the values for the EC50 in test [1] (class symbols) and in test [2] were 0.01 to 10 nM and 10 to 200 nM, respectively.
For the compound `C[C@H](/C=C\C/C=C\C/C=C\CCCC(=O)N[C@H](C)CO)/C=C\CCCCCOC1CCCCO1` (stereo partly shown) [Compound 4.1.3], the Ki in test [3], in test [4] (setting [5]) and in test [4] (setting [6]) was above 1000 nM in each case.
Take `C[C@H](/C=C\C/C=C\C/C=C\CCCC(=O)N[C@H](C)CO)/C=C\CCCCCBr` [Compound 4.1.4, (S,5Z,8Z,11Z,14Z)-20-Bromo-N—((R)-1-hydroxypropan-2-yl)-13-methylicosa-5,8,11,14-tetraenamide]: the Ki in test [3], in test [4] (setting [5]) and in test [4] (setting [6]) was 0.01 to 10 nM each time.
As to `C[C@H](/C=C\C/C=C\C/C=C\CCCC(=O)N[C@H](C)CO)/C=C\CCCCCO[N+](=O)[O-]` [Compound 4.1.5b, (S,6Z,9Z,12Z,15Z)-20-(((R)-1-Hydroxypropan-2-yl)amino)-8-methyl-20-oxoicosa-6,9,12,15-tetraen-1-yl Nitrate], the results for the Ki in test [3], in test [4] (setting [5]) and in test [4] (setting [6]) were 10 to 200 nM, 0.01 to 10 nM and 0.01 to 10 nM, respectively. In test [4] (CB1 vs CB2, Tables 1 and 5), the “CB1 over CB2 preference” value was “bind to and stimulate preferentially the CB1 receptors”.
On to `CCCCC/C=C\C/C=C\C/C=C\C/C=C\C1CC1C(=O)NCCO` (stereo not shown) [Compound 4.2.2a, 2-((1Z,4Z,7Z,10Z)-Hexadeca-1,4,7,10-tetraen-1-yl)-N-(2-hydroxyethyl)cyclopropane-1-carboxamide], for which the Ki in test [3] and in test [4] (setting [6]) was above 1000 nM throughout.
Take `CCCCC/C=C\C/C=C\C/C=C\C/C=C\C1CC(C(=O)NCCO)C1` (stereo not shown) [Compound 4.2.2c]: the Ki in test [3] and in test [4] (setting [5]) was 200 to 1000 nM each time.
`CCCCC/C=C\C/C=C\C/C=C\C/C=C\C1(CC(=O)NCCO)CCC1` [Compound 4.2.2d]: the inhibitory constant (Ki) (usually the equilibrium dissociation constant of an inhibitor or competing ligand from its target) in test [4] (setting [5]) was in the range of 200 to 1000 nM.
Consider `CCCCC/C=C\C/C=C\C/C=C\C/C=C\C1CC[C@@H](C(=O)NCCO)C1` (stereo partly shown) [Compound 4.2.2e], for which the Ki in test [3] and in test [4] (setting [5]) was 200 to 1000 nM throughout.
Regarding `CCCCC/C=C\C/C=C\C/C=C\C/C=C\C1CCC(C(=O)NCCO)CC1` (stereo not shown) [Compound 4.2.2f], the Ki in test [3] and in test [4] (setting [5]) was 200 to 1000 nM in each case.
In the case of `CCCCC/C=C\[C@H](C)/C=C\C/C=C\Cc1ccccc1CCCC(=O)N[C@H](C)CO` [Compound 4.5.3, N—((R)-1-hydroxypropan-2-yl)-4-(2-((S,2Z,5Z,8Z)-7-methyltetradeca-2,5,8-trien-1-yl)phenyl)butanamide], in test [4] (vs AEA, Table 5), the “binding affinity for CB1 receptor compared to endogenous AEA” value is on record as “substantially higher binding affinities”. In addition, the Ki in test [4] (setting [5]) and in test [4] (setting [6]) was 0.01 to 10 nM throughout.
For `C[C@H](/C=C\C/C=C\C/C=C\CCCC(=O)NC(CO)CO)/C=C\CCCCCO[N+](=O)[O-]` [Compound 5.1.6b], the EC50 – broadly, the concentration at which the effect is half-maximal – lay in the range of 0.01 to 10 nM in test [1] (class symbols) and 10 to 200 nM in test [2].
Take `C[C@H](/C=C\C/C=C\C/C=C\CCCC(=O)NC(CO)CO)/C=C\CCCCCOC1CCCCO1` (stereo partly shown) [Compound 5.1.6c]: the EC50 in test [1] (class symbols) and in test [2] was above 1000 nM each time.
The compound `CCCCC/C=C\C/C=C\C/C=C\C/C=C\C1CC1C(=O)OC(CO)CO` (stereo not shown) [Compound 5.2.2a, 1,3-Dihydroxypropan-2-yl 2-((1Z,4Z,7Z,10Z)-hexadeca-1,4,7,10-tetraen-1-yl)cyclopropane-1-carboxylate] showed an EC50 in test [1] (class symbols) of 10 to 200 nM.
In test [2], `CCCCC/C=C\C/C=C\C/C=C\C/C=C\C1CC1C(=O)OC(CO)CO` (stereo not shown) [Compound 5.2.2b] showed an EC50 of 10 to 200 nM.
As to `CCCCC/C=C\C/C=C\C/C=C\C/C=C\C1CC(C(=O)OC(CO)CO)C1` (stereo not shown) [Compound 5.2.2c], the EC50 in test [1] (class symbols) and in test [2] was above 1000 nM in each case.
As for `CCCCC/C=C\C/C=C\C/C=C\C/C=C\C1(CC(=O)OC(CO)CO)CCC1` [Compound 5.2.2d], the figures for the EC50 in test [1] (class symbols) and in test [2] were 200 to 1000 nM and above 1000 nM, respectively.
On to `CCCCC/C=C\C/C=C\C/C=C\C/C=C\C1CCC(C(=O)OC(CO)CO)CC1` (stereo not shown) [Compound 5.2.2f], for which the EC50 in test [1] (class symbols) and in test [2] was above 1000 nM throughout.
For the compound `CCCCC/C=C\[C@H](C)/C=C\C/C=C\C/C=C\CCCC(=O)OC(CO)CO` [Compound 5.4.3c, 1,3-Dihydroxypropan-2-yl (S,5Z,8Z,11Z,14Z)-13-methylicosa-5,8,11,14-tetraenoate], in test [1], the “functional profile at CB1 (cAMP)” value is “full agonist” and the Emax (in general, the maximal effect, on the per cent scale that the assay sets) stood at 99%. Also, in test [1] (numeric), the EC50 came out at 10.3 nM. In test [2], the EC50 fell in the range of 0.01 to 10 nM.
As for `CCCCC/C=C\[C@@H](C)/C=C\C/C=C\C/C=C\CCCC(=O)OC(CO)CO` [Compound 5.4.3d, 1,3-Dihydroxypropan-2-yl (R,5Z,8Z,11Z,14Z)-13-methylicosa-5,8,11,14-tetraenoate], in test [1], the “functional profile at CB1 (cAMP)” value was “full agonist”. Besides, the EC50 in test [1] (numeric) is 4.1 nM; in test [2] it was 0.01 to 10 nM. In test [1], the Emax stood at 95%.
`C[C@H](/C=C\C/C=C\C/C=C\C1CC1C(=O)OC(CO)CO)/C=C\CCCCCO[N+](=O)[O-]` (stereo partly drawn) [Compound 5.7.3b, 1,3-dihydroxypropan-2-yl-2-((S,1Z,4Z,7Z,10Z)-9-methyl-16-(nitrooxy)hexadeca-1,4,7,10-tetraen-1-yl)cyclopropane-1-carboxylate] returned an EC50 in test [1] (class symbols) of 0.01 to 10 nM.
In test [1] (class symbols), `N#CCCCCC/C=C\C/C=C\C/C=C\C/C=C\C1CC1C(=O)OC(CO)CO` (stereo not shown) [Compound 5.8.3a, 1,3-Dihydroxypropan-2-yl-2-((1Z,4Z,7Z,10Z)-16-cyanohexadeca-1,4,7,10-tetraen-1-yl)cyclopropane-1-carboxylate] gave an EC50 of 10 to 200 nM.
As to `O=C(OC(CO)CO)C1CC1/C=C\C/C=C\C/C=C\C/C=C\CCCCCO[N+](=O)[O-]` (stereo not shown) [Compound 5.8.3b, 1,3-Dihydroxypropan-2-yl-2-((1Z,4Z,7Z,10Z)-16-(nitrooxy)hexadeca-1,4,7,10-tetraen-1-yl)cyclopropane-1-carboxylate], in test [1] (class symbols), the EC50 was in the range of 10 to 200 nM.
Take `CCCCC/C=C\[C@H](C)/C=C\C/C=C\Cc1ccccc1CCCC(=O)OC(CO)CO` [Compound 5.9.3]: the EC50 in test [1] (class symbols) and in test [2] was above 1000 nM each time.
Regarding `C[C@H](/C=C\C/C=C\C/C=C\[C@@H]1C[C@H]1C(=O)OC(CO)CO)/C=C\CCCCC(F)(F)F` [Compound 5.12.1], the EC50 in test [1] (class symbols) and in test [2] was 10 to 200 nM in each case.
With `C[C@H](/C=C\C/C=C\C/C=C\[C@H]1C[C@@H]1C(=O)OC(CO)CO)/C=C\CCCCC(F)(F)F` [Compound 5.12.2], the results for the concentration giving a half-maximal response (EC50) in test [1] (class symbols) and in test [2] were above 1000 nM and 10 to 200 nM, respectively.
Taken in the same sequence, the figures for `C[C@H](/C=C\C/C=C\C/C=C\[C@H]1C[C@H]1C(=O)OC(CO)CO)/C=C\CCCCC(F)(F)F` [Compound 5.12.3, 1,3-dihydroxypropan-2-yl (1R,2R)-2-((S,1Z,4Z,7Z,10Z)-16,16,16-trifluoro-9-methylhexadeca-1,4,7,10-tetraen-1-yl)cyclopropane-1-carboxylate] were 0.01 to 10 nM and 10 to 200 nM.
Taken in the same sequence, the figures for `C[C@H](/C=C\C/C=C\C/C=C\[C@@H]1C[C@@H]1C(=O)OC(CO)CO)/C=C\CCCCC(F)(F)F` [Compound 5.12.4, 1,3-dihydroxypropan-2-yl (1S,2S)-2-((S,1Z,4Z,7Z,10Z)-16,16,16-trifluoro-9-methylhexadeca-1,4,7,10-tetraen-1-yl)cyclopropane-1-carboxylate] were 10 to 200 nM and 10 to 200 nM.
Consider `CCCCC/C=C\[C@H](C)/C=C\C/C=C\C/C=C\CCCOC(=O)C(C)(CO)CO` [Compound 6.2.2, (S,4Z,7Z,10Z,13Z)-12-Methylnonadeca-4,7,10,13-tetraen-1-yl-3-hydroxy-2(hydroxymethyl)-2-methylpropanoate], for which the EC50 in test [1] (class symbols) and in test [2] was 10 to 200 nM throughout.
